{"source": "patent US8329656B2", "about": "“Use of a PDE5 inhibitor for treating and preventing hypopigmentary disorders” (Switch Biotech AG, priority 2004, dated 2012)", "system": "human melanoma cell line (Mel-Ho)", "experiment": "Melanocyte dendrite outgrowth assay", "type": "cell-based", "details": "Mel-Ho cells; for induction of melanocyte dendricity (in words): different concentrations, 24 hours", "excerpt": "A possibility to test the effect of a compound on melanocyte function as a measure for pigmentation, the melanocyte dendrite outgrowth assay can be performed. Vitiligo melanocytes for example have only stubby dendrites. Increasing dendricity as a prerequisite for the transfer of the melanosomes from melanocytes to the surrounding keratinocytes rescues this defect. For this assay, cells from a human melanoma cell line (Mel-Ho) were obtained from DSMZ (Deutsche Sammlung für Mikroorganismen and Zellkulturen) and were cultured according to the protocol provided by DSMZ. In short, after thawing the melanocytes were cultured in T-75 flasks in melanocyte culture media (provided by the manufacturer) until they reach 70-80% confluency. The melanocytes were then trypsinized, transferred into 5-10 new T-75 flasks, and grown again to same confluency as described above. After this expansion step the melanocytes were immediately used for the Melanocyte Dendrite Outgrowth Assay or were frozen for later use. For the assay, the melanocytes were seeded in 24 well plates at a density of 1-5×10^4 cells/well. After 24 hours, the melanocytes were treated with 100 μM IBMX (Sigma-Aldrich) or different concentrations of Sildenafil and Tadalafil for 24 hours. IBMX (=3-isobutyl-1-methylxanthin) is known to cause increased melanocyte dendricity and was used as a positive control. Cells treated with media only were used as a negative control. Melanocyte dendrite outgrowth was documented by digital photography (Canon G2 Powershot) after 3, 6 and 24 hours. In addition, melanocyte dendricity was scored by 3 blinded individuals after 24 hours. The score ranges from 1 to 4; 1 representing melanocytes with no dendrites and 4 representing melanocytes with many long and branched dendrites. […] 10 μM Sildenafil was used to obtain an score of >3, however also lower concentrations (down to 10 nM) of Sildenafil was sufficient to induce dendrite formation. The experiment was performed as described in Example 1, however using Tadalafil as active component.", "note": "Entries after “also recorded” stand apart in the source; their conditions may differ.", "data": [{"smiles": "CCCc1nn(C)c2c(=O)[nH]c(-c3cc(S(=O)(=O)N4CCN(C)CC4)ccc3OCC)nc12", "note": "[Sildenafil, 5-[2-Ethoxy-5-(4-methyl-1-piperazinylsulfonyl)phenyl]-1-methyl-3-n-propyl-1,6-dihydro-7H-pyrazolo[4,3-d]pyrimidin-7-one]", "values": [{"measurement": "induction of melanocyte dendricity (in words)", "result": "strongly increased dendricity"}, {"measurement": "concentration sufficient to induce dendrite formation", "setting": "lower concentrations than 10 μM", "result": "≥ 10", "unit": "nM"}]}, {"smiles": "CN1CC(=O)N2C(Cc3c([nH]c4ccccc34)[C@H]2c2ccc3c(c2)OCO3)C1=O", "note": "(stereo partly drawn) [Tadalafil, (6R,12aR)-2,3,6,7,12,12a-hexahydro-2-methyl-6-(3,4-methylenedioxyphenyl)pyrazino[1′,2′:1,6]pyrido[3,4-b]indole-1,4-dione]", "values": [{"measurement": "induction of melanocyte dendricity (in words)", "result": "very similar to the results obtained with Sildenafil; also recorded: effectively induces dendricity; also recorded: strongly increased dendricity"}]}]}
